# Test results taken from patent publication US20060111320A1, “Fungicidal mixtures based on a triazolopyrimidine derivative and azoles” (priority 2002, published 2006).
# Like-named read-outs stand apart in the source and are kept apart here.
# How the values were obtained:
# Type in all cases: in vivo
# Cochliobolus miyabeanus = assay: Activity against brown spot of rice caused by Cochliobolus miyabeanus, protective treatment; conditions: Bipolaris oryzae, 144 h, read-out: Efficacy in % of the untreated control
# Pyricularia oryzae = conditions: individual active compound, rice seedlings Tai-Nong 67
# Plasmopara viticola = assay: Activity against Peronospora of grapevines caused by Plasmopara viticola; conditions: individual active compound, potted vines
# Experimental: The active compounds, separately or jointly, were prepared as a stock solution with 0.25% by weight of active compound in acetone or DMSO. 1% by weight of the emulsifier Uniperol® EL (wetting agent having emulsifying and dispersing action based on ethoxylated alkylphenols) was added to this solution. The active compounds or the mixtures were diluted with water to the stated concentration.
# Evaluation was carried out by determining the infected leaf areas in percent. These percentages were converted into efficacies. The efficacy (W) is calculated as follows using Abbot's formula: W=(1−α/β)·100 • α is the level of fungicidal infection of the treated plants in % and • β is the level of fungicidal infection of the untreated (control) plants in %
# An efficacy of 0 means that the infection level of the treated plants corresponds to that of the untreated control plants; an efficacy of 100 means that the treated plants were not infected.
# The expected efficacies of the mixtures of active compounds were determined using Colby's formula [R. S. Colby, Weeds 15, 20-22 (1967)] and compared with the observed efficacies. Colby's formula: E=x+y−x·y/100 • E expected efficacy, expressed in % of the untreated control, when using the mixture of the active compounds A and B at the concentrations a and b • x efficacy, expressed in % of the untreated control, when using active compound A at the concentration a • y efficacy, expressed in % of the untreated control, when using active compound B at the concentration b
# Leaves of potted vines were sprayed to runoff point with an aqueous suspension having the concentration of active compound stated below. The next day, the undersides of the leaves were inoculated with an aqueous sporangial suspension of Plasmopara viticola. The grapevines were then initially placed into a water-vapor-saturated chamber at 24° C. for 48 hours and then placed in a greenhouse at 20-30° C. for 5 days. After this period of time, the plants were again placed in a humid chamber for 16 hours to promote sporangiophore eruption. The extent to which the infection had developed on the undersides of the leaves was then determined visually.
Structure (SMILES),pest or weed control at 1 ppm (Cochliobolus miyabeanus),pest or weed control at 4 ppm (Cochliobolus miyabeanus),pest or weed control at 16 ppm (Cochliobolus miyabeanus),Efficacy in % of the untreated control (Pyricularia oryzae; 1 ppm in the spray liquor),also measured
"OC(Cc1ccccc1Cl)(Cn1nc[nH]c1=S)C1(Cl)CC1 (stereo not shown) [XVIII (prothioconazole), 2-[2-(1-chlorocyclopropyl)-3-(2-chlorophenyl)-2-hydroxypropyl]-2,4-dihydro[l,2,4]triazole-3-thione]",13%,50%,63%,–,–
"N#CC(Cc1ccc(Cl)cc1)(c1ccccc1)n1cncn1 (stereo not shown) [V (fenbuconazole), 3-(4-chlorophenyl)-2-phenyl-2-[1,2,4]triazol-1-ylpropionitrile]",–,–,–,0%,–
"CCCCC(O)(Cn1cncn1)c1ccc(Cl)cc1Cl (stereo not shown) [VIII (hexaconazole), 2-(2,4-dichlorophenyl)-1-[1,2,4]triazol-1-ylhexan-2-ol]",–,–,–,11%,–
CC1COC(Cn2cncn2)(c2ccc(Oc3ccc(Cl)cc3)cc2Cl)O1 (stereo not shown) [III (difenoconazole)],13%,38%,63%,–,–
"CC1(C)CC/C(=C\c2ccc(Cl)cc2)C1(O)Cn1cncn1 (stereo not shown) [XVII (triticonazole), 5-(4-chlorobenzylidene)-2,2-dimethyl-1-[1,2,4]triazol-1-ylmethyl cyclopentanol]",–,–,–,–,Efficacy in % of the untreated control (Plasmopara viticola; 1 ppm in the spray liquor): 0%; Efficacy in % of the untreated control (Plasmopara viticola; 4 ppm in the spray liquor): 0%
"CCCC(Cn1cncn1)c1ccc(Cl)cc1Cl (stereo not shown) [XIV (penconazole), 1-[2-(2,4-dichlorophenyl)pentyl]-1H-[1,2,4]triazole]",0%,25%,63%,–,–
"CC1CCN(c2c(-c3c(F)cc(F)cc3F)c(Cl)nc3ncnn23)CC1 [I, 5-chloro-7-(4-methylpiperidin-1-yl)-6-(2,4,6-trifluorophenyl)-[1,2,4]triazolo[1,5-a]pyrimidine]",–,33%,–,11%,Efficacy in % of the untreated control (Pyricularia oryzae; 0.25 ppm in the spray liquor): 0%; Efficacy in % of the untreated control (Pyricularia oryzae; 4 ppm in the spray liquor): 33%; Efficacy in % of the untreated control (Plasmopara viticola; 1 ppm in the spray liquor): 0%; Efficacy in % of the untreated control (Plasmopara viticola; 4 ppm in the spray liquor): 38%
"FC(F)C(F)(F)OCC(Cn1cncn1)c1ccc(Cl)cc1Cl (stereo not shown) [X (tetraconazole), 1-[2-(2,4-dichlorophenyl)-3-(1,1,2,2-tetrafluoroethoxy)propyl]-1H-[1,2,4]triazole]",–,–,–,–,Efficacy in % of the untreated control (Plasmopara viticola; 1 ppm in the spray liquor): 0%; Efficacy in % of the untreated control (Plasmopara viticola; 4 ppm in the spray liquor): 0%
"CC(C)(C)C(O)/C(=C\c1ccc(Cl)cc1Cl)n1cncn1 (stereo not shown) [IV (diniconazole), 1-(2,4-dichlorophenyl)-4,4-dimethyl-2-[1,2,4]triazol-1-ylpent-1-en-3-ol]",0%,0%,25%,–,–
"OC(Cn1cncn1)(c1ccc(F)cc1)c1ccccc1F (stereo not shown) [XII (flutriafol), 1-(4-fluorophenyl)-1-(2-fluorophenyl)-2-[1,2,4]triazol-1-ylethanol]",0%,25%,63%,–,–
"CCCOC/C(=N\c1ccc(Cl)cc1C(F)(F)F)n1cncn1 [XI (triflumizole), (4-chloro-2-trifluormethylphenyl)-(2-propoxy-1-[1,2,4]triazol-1-ylethylidene)amine]",–,–,–,11%,–
"CC(C)C1CCC(Cc2ccc(Cl)cc2)C1(O)Cn1cncn1 (stereo not shown) [XVI (ipconazole), 2-(4-chlorobenzyl)-5-isopropyl-1-[1,2,4]triazol-1-ylmethylcyclo pentanol]",–,–,–,11%,–
"O=c1c2cc(F)ccc2nc(-n2cncn2)n1-c1ccc(Cl)cc1Cl [VI (fluquinconazole), 3-(2,4-dichlorophenyl)-6-fluoro-2-[1,2,4]-triazol-1-yl-3H-quinazolin-4-one]",–,–,–,–,Efficacy in % of the untreated control (Plasmopara viticola; 1 ppm in the spray liquor): 0%; Efficacy in % of the untreated control (Plasmopara viticola; 4 ppm in the spray liquor): 0%
"Clc1ccc(C2(Cn3cncn3)CC(Br)CO2)c(Cl)c1 (stereo not shown) [II (bromuconazole), 1-[4-bromo-2-(2,4-dichlorophenyl)tetrahydrofuran-2-ylmethyl]-1H-[1,2,4]triazole]",13%,25%,50%,–,–
